According to PubChem BioAssay (NCI):
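Test compounds were applied to cells in 96-well plates for 48 hours at 5 doses. TGI: total growth inhibition.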

Columns and labels:
Test in all cases: NCI-60 cell line screen, 48 h
HS 578T breast = test system: HS 578T breast
A498 renal = test system: A498 renal
A549 NSCLC = test system: A549 NSCLC
SK-MEL-28 melanoma = test system: SK-MEL-28 melanoma
HOP-62 NSCLC = test system: HOP-62 NSCLC
MDA-N = test system: MDA-N
MOLT-4 leukemia = test system: MOLT-4 leukemia
SR leukemia = test system: SR leukemia
KM12 colon = test system: KM12 colon
HCC-2998 colon = test system: HCC-2998 colon
OVCAR-5 ovarian = test system: OVCAR-5 ovarian
OVCAR-3 ovarian = test system: OVCAR-3 ovarian
NCI-H226 lung = test system: NCI-H226 lung
RPMI-8226 leukemia = test system: RPMI-8226 leukemia
UACC-62 melanoma = test system: UACC-62 melanoma
SF-295 CNS = test system: SF-295 CNS
IGROV1 ovarian = test system: IGROV1 ovarian
DU-145 prostate = test system: DU-145 prostate
U251 CNS = test system: U251 CNS
SNB-75 CNS = test system: SNB-75 CNS
SF-539 CNS = test system: SF-539 CNS
COLO 205 colon = test system: COLO 205 colon
NCI/ADR-RES ovarian = test system: NCI/ADR-RES ovarian
786-0 renal = test system: 786-0 renal
SF-268 CNS = test system: SF-268 CNS
SK-MEL-5 melanoma = test system: SK-MEL-5 melanoma
T-47D breast = test system: T-47D breast
UACC-257 melanoma = test system: UACC-257 melanoma
BT-549 breast = test system: BT-549 breast
HOP-92 NSCLC = test system: HOP-92 NSCLC
EKVX NSCLC = test system: EKVX NSCLC
SK-MEL-2 melanoma = test system: SK-MEL-2 melanoma
NCI-H522 lung = test system: NCI-H522 lung
OVCAR-4 ovarian = test system: OVCAR-4 ovarian
HCT-116 colon = test system: HCT-116 colon
PC-3 prostate = test system: PC-3 prostate
MDA-MB-231 breast = test system: MDA-MB-231 breast
MALME-3M melanoma = test system: MALME-3M melanoma
LOX IMVI melanoma = test system: LOX IMVI melanoma
SK-OV-3 ovarian = test system: SK-OV-3 ovarian
ACHN renal = test system: ACHN renal
HCT-15 colon = test system: HCT-15 colon
TK-10 renal = test system: TK-10 renal
SNB-19 CNS = test system: SNB-19 CNS
UO-31 renal = test system: UO-31 renal
NCI-H23 lung = test system: NCI-H23 lung
RXF 393 renal = test system: RXF 393 renal
OVCAR-8 ovarian = test system: OVCAR-8 ovarian
CAKI-1 renal = test system: CAKI-1 renal
CCRF-CEM leukemia = test system: CCRF-CEM leukemia
MDA-MB-435 = test system: MDA-MB-435
MCF7 breast = test system: MCF7 breast
SW-620 colon = test system: SW-620 colon
M14 melanoma = test system: M14 melanoma
NCI-H460 lung = test system: NCI-H460 lung
HT29 colon = test system: HT29 colon
HL-60(TB) leukemia = test system: HL-60(TB) leukemia
SN12C renal = test system: SN12C renal
K-562 leukemia = test system: K-562 leukemia

Cc1nc2c(sc3nc4ccccc4n32)c(=O)[nH]1
TGI (HS 578T breast): > 100 µM | TGI (A498 renal): > 100 µM | TGI (A549 NSCLC): > 100 µM | TGI (SK-MEL-28 melanoma): > 100 µM | TGI (HOP-62 NSCLC): > 100 µM | TGI (MDA-N): > 100 µM | TGI (MOLT-4 leukemia): > 100 µM | TGI (SR leukemia): > 100 µM | TGI (KM12 colon): > 100 µM | TGI (HCC-2998 colon): > 100 µM | TGI (OVCAR-5 ovarian): > 100 µM | TGI (OVCAR-3 ovarian): > 100 µM | TGI (NCI-H226 lung): > 100 µM | TGI (RPMI-8226 leukemia): > 100 µM | TGI (UACC-62 melanoma): > 100 µM | TGI (SF-295 CNS): > 100 µM | TGI (IGROV1 ovarian): > 100 µM | TGI (DU-145 prostate): > 100 µM | TGI (U251 CNS): > 100 µM | TGI (SNB-75 CNS): > 100 µM | TGI (SF-539 CNS): > 100 µM | TGI (COLO 205 colon): > 100 µM | TGI (NCI/ADR-RES ovarian): > 100 µM | TGI (786-0 renal): > 100 µM | TGI (SF-268 CNS): > 100 µM | TGI (SK-MEL-5 melanoma): > 100 µM | TGI (T-47D breast): > 100 µM | TGI (UACC-257 melanoma): > 100 µM | TGI (BT-549 breast): > 100 µM | TGI (HOP-92 NSCLC): > 100 µM | TGI (EKVX NSCLC): > 100 µM | TGI (SK-MEL-2 melanoma): > 100 µM | TGI (NCI-H522 lung): > 100 µM | TGI (OVCAR-4 ovarian): > 100 µM | TGI (HCT-116 colon): > 100 µM | TGI (PC-3 prostate): > 100 µM | TGI (MDA-MB-231 breast): > 100 µM | TGI (MALME-3M melanoma): > 100 µM | TGI (LOX IMVI melanoma): > 100 µM | TGI (SK-OV-3 ovarian): > 100 µM | TGI (ACHN renal): > 100 µM | TGI (HCT-15 colon): > 100 µM | TGI (TK-10 renal): > 100 µM | TGI (SNB-19 CNS): > 100 µM | TGI (UO-31 renal): > 100 µM | TGI (NCI-H23 lung): > 100 µM | TGI (RXF 393 renal): > 100 µM | TGI (OVCAR-8 ovarian): > 100 µM | TGI (CAKI-1 renal): > 100 µM | TGI (CCRF-CEM leukemia): > 100 µM | TGI (MDA-MB-435): > 100 µM | TGI (MCF7 breast): > 100 µM | TGI (SW-620 colon): > 100 µM | TGI (M14 melanoma): > 100 µM

COC(=O)/N=[N+](\[O-])C(c1ccc(OC)cc1)C1CCCCC1 (stereo not drawn)
TGI (HS 578T breast): 40.7 µM | TGI (A498 renal): 25.3 µM | TGI (A549 NSCLC): 34.9 µM | TGI (SK-MEL-28 melanoma): 38.7 µM | TGI (HOP-62 NSCLC): 16.9 µM | TGI (MDA-N): 12 µM | TGI (MOLT-4 leukemia): 31.6 µM | TGI (KM12 colon): 16.7 µM | TGI (HCC-2998 colon): 16.1 µM | TGI (OVCAR-5 ovarian): 11.9 µM | TGI (OVCAR-3 ovarian): 33.2 µM | TGI (NCI-H226 lung): 26.9 µM | TGI (RPMI-8226 leukemia): 4.55 µM | TGI (UACC-62 melanoma): 25 µM | TGI (NCI-H460 lung): 7.98 µM | TGI (HT29 colon): 5.62 µM | TGI (SF-295 CNS): 16.4 µM | TGI (IGROV1 ovarian): > 100 µM | TGI (DU-145 prostate): 10.8 µM | TGI (U251 CNS): 20.1 µM | TGI (SNB-75 CNS): 20.8 µM | TGI (SF-539 CNS): > 48.3 µM | TGI (COLO 205 colon): 3.36 µM | TGI (NCI/ADR-RES ovarian): 15.8 µM | TGI (786-0 renal): 32.4 µM | TGI (SF-268 CNS): 37.9 µM | TGI (HL-60(TB) leukemia): 2.78 µM | TGI (SK-MEL-5 melanoma): > 41.4 µM | TGI (T-47D breast): 40.3 µM | TGI (UACC-257 melanoma): 25.3 µM | TGI (BT-549 breast): 43 µM | TGI (HOP-92 NSCLC): 36.8 µM | TGI (EKVX NSCLC): > 44.1 µM | TGI (SK-MEL-2 melanoma): 31.8 µM | TGI (NCI-H522 lung): 5.1 µM | TGI (OVCAR-4 ovarian): > 100 µM | TGI (HCT-116 colon): 4.41 µM | TGI (PC-3 prostate): 22.5 µM | TGI (MDA-MB-231 breast): 32.2 µM | TGI (MALME-3M melanoma): 11.8 µM | TGI (LOX IMVI melanoma): > 100 µM | TGI (SN12C renal): 11.3 µM | TGI (SK-OV-3 ovarian): 18.2 µM | TGI (ACHN renal): 16.3 µM | TGI (HCT-15 colon): 23.5 µM | TGI (TK-10 renal): 25.9 µM | TGI (SNB-19 CNS): > 54.2 µM | TGI (UO-31 renal): 21.5 µM | TGI (NCI-H23 lung): 22.6 µM | TGI (K-562 leukemia): 44.8 µM | TGI (RXF 393 renal): 28.3 µM | TGI (OVCAR-8 ovarian): 38.3 µM | TGI (CAKI-1 renal): 10.3 µM | TGI (CCRF-CEM leukemia): 20.6 µM | TGI (MDA-MB-435): 26.4 µM | TGI (MCF7 breast): > 100 µM | TGI (SW-620 colon): 24.3 µM | TGI (M14 melanoma): 13.1 µM

C[Si](C)(OCCS(=O)(=O)O)C1S(=O)(=O)OCCOS1(=O)=O
TGI (A498 renal): > 100 µM | TGI (SK-MEL-28 melanoma): > 100 µM | TGI (HOP-62 NSCLC): > 100 µM | TGI (MDA-N): > 100 µM | TGI (MOLT-4 leukemia): > 100 µM | TGI (SR leukemia): > 100 µM | TGI (KM12 colon): > 100 µM | TGI (HCC-2998 colon): > 100 µM | TGI (OVCAR-5 ovarian): > 100 µM | TGI (OVCAR-3 ovarian): > 100 µM | TGI (NCI-H226 lung): > 100 µM | TGI (RPMI-8226 leukemia): > 100 µM | TGI (UACC-62 melanoma): > 100 µM | TGI (NCI-H460 lung): > 100 µM | TGI (HT29 colon): > 100 µM | TGI (SF-295 CNS): 31.8 µM | TGI (IGROV1 ovarian): > 100 µM | TGI (DU-145 prostate): > 100 µM | TGI (U251 CNS): > 100 µM | TGI (SNB-75 CNS): 59.9 µM | TGI (SF-539 CNS): > 100 µM | TGI (COLO 205 colon): > 100 µM | TGI (NCI/ADR-RES ovarian): > 100 µM | TGI (786-0 renal): > 100 µM | TGI (SF-268 CNS): > 100 µM | TGI (HL-60(TB) leukemia): > 100 µM | TGI (SK-MEL-5 melanoma): > 100 µM | TGI (T-47D breast): > 100 µM | TGI (UACC-257 melanoma): > 100 µM | TGI (BT-549 breast): > 100 µM | TGI (HOP-92 NSCLC): > 100 µM | TGI (EKVX NSCLC): > 100 µM | TGI (NCI-H522 lung): > 100 µM | TGI (OVCAR-4 ovarian): > 100 µM | TGI (HCT-116 colon): > 100 µM | TGI (PC-3 prostate): > 100 µM | TGI (MDA-MB-231 breast): > 100 µM | TGI (MALME-3M melanoma): > 100 µM | TGI (LOX IMVI melanoma): > 100 µM | TGI (SN12C renal): > 100 µM | TGI (SK-OV-3 ovarian): > 100 µM | TGI (ACHN renal): > 100 µM | TGI (HCT-15 colon): > 100 µM | TGI (TK-10 renal): > 100 µM | TGI (SNB-19 CNS): > 100 µM | TGI (UO-31 renal): > 100 µM | TGI (NCI-H23 lung): > 100 µM | TGI (K-562 leukemia): > 100 µM | TGI (RXF 393 renal): > 100 µM | TGI (OVCAR-8 ovarian): > 100 µM | TGI (CAKI-1 renal): 84 µM | TGI (CCRF-CEM leukemia): > 100 µM | TGI (MDA-MB-435): > 100 µM | TGI (MCF7 breast): > 100 µM | TGI (SW-620 colon): > 100 µM | TGI (M14 melanoma): > 100 µM
